System: not listed separately
Assay: Antiproliferative activity against human KARPAS299 cells incubated for 72 hrs by cell titer-glo assay
Settings: KARPAS-299, 72 h

| SMILES | IC50 |
| --- | --- |
| CN1CCN(c2ccc(C(=O)Nc3n[nH]c4ccc(Cc5cc(F)cc(F)c5)cc34)c(NC3CCCCC3)c2)CC1 | 609 nM |
| CN1CCN(c2ccc(C(=O)Nc3n[nH]c4ccc(Cc5cc(F)cc(F)c5)cc34)c(N)c2)CC1 | 214 nM |
| CN1CCN(c2ccc(C(=O)Nc3n[nH]c4ccc(Cc5cc(F)cc(F)c5)cc34)c(N[C@H]3CC[C@@H](O)CC3)c2)CC1 | 162 nM |
| COCC(COC)Nc1cc(N2CCN(C)CC2)ccc1C(=O)Nc1n[nH]c2ccc(Cc3cc(F)cc(F)c3)cc12 | 340 nM |
| C[C@@H](c1cc(F)cc(F)c1)c1ccc2[nH]nc(NC(=O)c3ccc(N4CCN(C)CC4)cc3NC3CCOCC3)c2c1 | 16 nM |
| COC[C@@H](C)Nc1cc(N2CCN(C)CC2)ccc1C(=O)Nc1n[nH]c2ccc(Cc3cc(F)cc(F)c3)cc12 | 74 nM |
| CN1CCC(Nc2cc(N3CCN(C)CC3)ccc2C(=O)Nc2n[nH]c3ccc(Cc4cc(F)cc(F)c4)cc23)CC1 | 438 nM |
| CN1CCN(c2ccc(C(=O)Nc3n[nH]c4ccc(Cc5cccc(F)c5)cc34)c(NC3CCOCC3)c2)CC1 | 18 nM |
| CN1CCN(c2ccc(C(=O)Nc3n[nH]c4ccc(Cc5cc(F)cc(F)c5)cc34)cc2)CC1 | 253 nM |
| CN1CCN(c2ccc(C(=O)Nc3n[nH]c4ccc(Cc5cc(F)cc(F)c5)cc34)c(NCc3ccccc3)c2)CC1 | 1260 nM |
| CN1CCN(c2ccc(C(=O)Nc3n[nH]c4ccc(Cc5cc(F)cc(F)c5)cc34)c(Nc3ccccc3)c2)CC1 | 991 nM |
| CN1CCN(c2ccc(C(=O)Nc3n[nH]c4ccc(Cc5cc(F)cc(F)c5)cc34)c(NCCO)c2)CC1 | 118 nM |
| CN1CCN(c2ccc(C(=O)Nc3n[nH]c4ccc(Cc5cc(F)ccc5F)cc34)c(NC3CCOCC3)c2)CC1 | 49 nM |

System: not listed separately
Assay: Apparent permeability from apical to basolateral side in human Caco2 cells at 2.5 mg/ml after 2 hrs by reversed-phase HPLC method
Format: ADME, cell-based
Settings: Caco-2

| SMILES | Papp A→B at 2 h, 2.5 mg/ml |
| --- | --- |
| CN1CCC(Nc2cc(N3CCN(C)CC3)ccc2C(=O)Nc2n[nH]c3ccc(Cc4cc(F)cc(F)c4)cc23)CC1 | 1.5 ×10⁻⁶ cm/s |

Biological target: ALK tyrosine kinase receptor (Homo sapiens, UniProt Q9UM73)
Settings: not given

Chain of ALK tyrosine kinase receptor (Q9UM73 whole entry): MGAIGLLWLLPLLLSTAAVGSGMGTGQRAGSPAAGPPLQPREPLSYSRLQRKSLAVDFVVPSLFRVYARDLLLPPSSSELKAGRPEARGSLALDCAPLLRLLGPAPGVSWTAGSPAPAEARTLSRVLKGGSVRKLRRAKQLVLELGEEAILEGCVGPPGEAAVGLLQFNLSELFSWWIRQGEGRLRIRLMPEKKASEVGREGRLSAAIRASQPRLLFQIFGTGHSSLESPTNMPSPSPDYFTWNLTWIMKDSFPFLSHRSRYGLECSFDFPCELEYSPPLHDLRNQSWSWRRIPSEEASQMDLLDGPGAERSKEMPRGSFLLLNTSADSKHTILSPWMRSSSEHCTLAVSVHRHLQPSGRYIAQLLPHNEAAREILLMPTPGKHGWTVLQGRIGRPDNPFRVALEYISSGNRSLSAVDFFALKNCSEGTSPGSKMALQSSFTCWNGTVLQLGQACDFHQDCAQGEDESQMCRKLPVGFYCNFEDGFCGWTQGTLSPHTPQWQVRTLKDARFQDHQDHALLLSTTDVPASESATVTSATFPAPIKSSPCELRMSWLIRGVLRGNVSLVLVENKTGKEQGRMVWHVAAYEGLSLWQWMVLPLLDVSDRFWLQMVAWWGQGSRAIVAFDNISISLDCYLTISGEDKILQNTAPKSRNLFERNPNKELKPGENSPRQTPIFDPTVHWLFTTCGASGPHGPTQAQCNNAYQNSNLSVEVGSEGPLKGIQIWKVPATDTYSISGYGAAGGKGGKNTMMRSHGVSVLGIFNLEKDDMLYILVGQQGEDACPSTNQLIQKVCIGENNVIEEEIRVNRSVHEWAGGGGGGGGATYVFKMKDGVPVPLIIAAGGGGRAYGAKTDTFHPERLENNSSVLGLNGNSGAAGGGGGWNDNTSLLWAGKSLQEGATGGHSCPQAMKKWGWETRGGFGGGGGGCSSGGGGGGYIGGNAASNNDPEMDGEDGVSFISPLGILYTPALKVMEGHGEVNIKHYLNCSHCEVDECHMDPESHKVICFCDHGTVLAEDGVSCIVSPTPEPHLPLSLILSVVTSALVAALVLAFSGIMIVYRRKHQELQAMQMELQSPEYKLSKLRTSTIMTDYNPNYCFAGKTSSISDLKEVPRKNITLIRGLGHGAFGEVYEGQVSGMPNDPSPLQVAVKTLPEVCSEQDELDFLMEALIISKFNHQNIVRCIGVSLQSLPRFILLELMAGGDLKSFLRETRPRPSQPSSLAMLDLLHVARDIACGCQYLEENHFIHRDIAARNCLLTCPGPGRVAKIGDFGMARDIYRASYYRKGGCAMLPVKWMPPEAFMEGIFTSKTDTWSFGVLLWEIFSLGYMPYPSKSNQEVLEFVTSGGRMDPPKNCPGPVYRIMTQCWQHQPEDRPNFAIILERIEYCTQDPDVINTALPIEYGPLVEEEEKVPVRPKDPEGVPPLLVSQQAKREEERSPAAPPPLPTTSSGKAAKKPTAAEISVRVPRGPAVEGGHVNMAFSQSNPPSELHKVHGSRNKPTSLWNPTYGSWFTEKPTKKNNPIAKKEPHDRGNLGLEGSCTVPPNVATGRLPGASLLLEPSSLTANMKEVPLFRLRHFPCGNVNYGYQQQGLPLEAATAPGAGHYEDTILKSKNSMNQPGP

| SMILES | IC50 |
| --- | --- |
| CN1CCN(c2ccc(C(=O)Nc3n[nH]c4ccc(Cc5cc(F)cc(F)c5)cc34)c(NC3CCCCC3)c2)CC1 | 560 nM |
| CN1CCN(c2ccc(C(=O)Nc3n[nH]c4ccc(Cc5cc(F)cc(F)c5)cc34)c(N)c2)CC1 | 67 nM |
| CN1CCN(c2ccc(C(=O)Nc3n[nH]c4ccc(Cc5cc(F)cc(F)c5)cc34)c(N[C@H]3CC[C@@H](O)CC3)c2)CC1 | 98 nM |
| COCC(COC)Nc1cc(N2CCN(C)CC2)ccc1C(=O)Nc1n[nH]c2ccc(Cc3cc(F)cc(F)c3)cc12 | 99 nM |
| C[C@@H](c1cc(F)cc(F)c1)c1ccc2[nH]nc(NC(=O)c3ccc(N4CCN(C)CC4)cc3NC3CCOCC3)c2c1 | 19 nM |
| COC[C@@H](C)Nc1cc(N2CCN(C)CC2)ccc1C(=O)Nc1n[nH]c2ccc(Cc3cc(F)cc(F)c3)cc12 | 72 nM |
| CN1CCC(Nc2cc(N3CCN(C)CC3)ccc2C(=O)Nc2n[nH]c3ccc(Cc4cc(F)cc(F)c4)cc23)CC1 | 15 nM |
| CN1CCN(c2ccc(C(=O)Nc3n[nH]c4ccc(Cc5cccc(F)c5)cc34)c(NC3CCOCC3)c2)CC1 | 30 nM |
| CN1CCN(c2ccc(C(=O)Nc3n[nH]c4ccc(Cc5cc(F)cc(F)c5)cc34)cc2)CC1 | 73 nM |
| CN1CCN(c2ccc(C(=O)Nc3n[nH]c4ccc(Cc5cc(F)cc(F)c5)cc34)c(NCc3ccccc3)c2)CC1 | 378 nM |
| CN1CCN(c2ccc(C(=O)Nc3n[nH]c4ccc(Cc5cc(F)cc(F)c5)cc34)c(Nc3ccccc3)c2)CC1 | 684 nM |
| CN1CCN(c2ccc(C(=O)Nc3n[nH]c4ccc(Cc5cc(F)cc(F)c5)cc34)c(NCCO)c2)CC1 | 26 nM |
| CN1CCN(c2ccc(C(=O)Nc3n[nH]c4ccc(Cc5cc(F)ccc5F)cc34)c(NC3CCOCC3)c2)CC1 | 38 nM |

Biological target: Insulin receptor (Homo sapiens, UniProt P06213)
Assay: Inhibition of IR (unknown origin) in presence of gamma33-ATP
Settings: not given

Chain of Insulin receptor (P06213 28-758 limits assumed): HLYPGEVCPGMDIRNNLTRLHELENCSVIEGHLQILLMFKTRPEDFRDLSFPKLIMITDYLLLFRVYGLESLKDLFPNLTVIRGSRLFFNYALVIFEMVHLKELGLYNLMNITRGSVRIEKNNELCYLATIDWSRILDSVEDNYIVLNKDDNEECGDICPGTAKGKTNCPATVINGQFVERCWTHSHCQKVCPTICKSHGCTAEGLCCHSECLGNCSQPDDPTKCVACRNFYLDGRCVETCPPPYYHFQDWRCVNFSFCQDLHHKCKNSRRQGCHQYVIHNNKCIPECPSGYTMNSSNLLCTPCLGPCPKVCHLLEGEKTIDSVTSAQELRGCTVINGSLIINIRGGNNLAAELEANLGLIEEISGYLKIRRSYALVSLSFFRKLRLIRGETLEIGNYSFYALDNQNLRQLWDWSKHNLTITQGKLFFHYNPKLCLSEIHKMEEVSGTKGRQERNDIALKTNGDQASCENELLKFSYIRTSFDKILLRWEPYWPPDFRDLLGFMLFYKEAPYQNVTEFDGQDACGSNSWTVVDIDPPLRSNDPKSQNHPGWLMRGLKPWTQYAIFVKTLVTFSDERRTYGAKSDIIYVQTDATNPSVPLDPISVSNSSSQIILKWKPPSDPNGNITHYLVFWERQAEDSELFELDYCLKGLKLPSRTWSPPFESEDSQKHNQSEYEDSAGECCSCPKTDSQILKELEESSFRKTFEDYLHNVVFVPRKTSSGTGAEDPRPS
Chain of Insulin receptor (P06213 763-1382 limits assumed): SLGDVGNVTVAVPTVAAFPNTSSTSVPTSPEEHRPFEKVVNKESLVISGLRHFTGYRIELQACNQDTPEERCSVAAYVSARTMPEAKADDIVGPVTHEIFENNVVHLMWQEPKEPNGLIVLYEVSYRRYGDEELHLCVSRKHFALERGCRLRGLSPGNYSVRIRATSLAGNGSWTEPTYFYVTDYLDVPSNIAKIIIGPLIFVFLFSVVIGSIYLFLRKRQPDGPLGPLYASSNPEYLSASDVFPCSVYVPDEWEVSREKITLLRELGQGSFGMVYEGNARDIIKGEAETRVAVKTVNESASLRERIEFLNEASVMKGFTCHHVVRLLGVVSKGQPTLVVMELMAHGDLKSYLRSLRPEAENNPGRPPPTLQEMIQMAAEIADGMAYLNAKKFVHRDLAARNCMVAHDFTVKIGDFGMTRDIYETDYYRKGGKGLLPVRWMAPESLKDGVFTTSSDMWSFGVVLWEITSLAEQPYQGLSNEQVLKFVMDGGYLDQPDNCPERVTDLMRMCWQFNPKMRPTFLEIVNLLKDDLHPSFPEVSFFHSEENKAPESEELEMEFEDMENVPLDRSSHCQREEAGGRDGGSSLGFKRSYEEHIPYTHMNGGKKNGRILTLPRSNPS

| SMILES | IC50 |
| --- | --- |
| CN1CCN(c2ccc(C(=O)Nc3n[nH]c4ccc(Cc5cc(F)cc(F)c5)cc34)c(NC3CCCCC3)c2)CC1 | 3820 nM |
| CN1CCN(c2ccc(C(=O)Nc3n[nH]c4ccc(Cc5cc(F)cc(F)c5)cc34)c(N)c2)CC1 | 1300 nM |
| CN1CCN(c2ccc(C(=O)Nc3n[nH]c4ccc(Cc5cc(F)cc(F)c5)cc34)c(N[C@H]3CC[C@@H](O)CC3)c2)CC1 | 707 nM |
| COCC(COC)Nc1cc(N2CCN(C)CC2)ccc1C(=O)Nc1n[nH]c2ccc(Cc3cc(F)cc(F)c3)cc12 | 1640 nM |
| C[C@@H](c1cc(F)cc(F)c1)c1ccc2[nH]nc(NC(=O)c3ccc(N4CCN(C)CC4)cc3NC3CCOCC3)c2c1 | 189 nM |
| COC[C@@H](C)Nc1cc(N2CCN(C)CC2)ccc1C(=O)Nc1n[nH]c2ccc(Cc3cc(F)cc(F)c3)cc12 | 1070 nM |
| CN1CCC(Nc2cc(N3CCN(C)CC3)ccc2C(=O)Nc2n[nH]c3ccc(Cc4cc(F)cc(F)c4)cc23)CC1 | 330 nM |
| CN1CCN(c2ccc(C(=O)Nc3n[nH]c4ccc(Cc5cccc(F)c5)cc34)c(NC3CCOCC3)c2)CC1 | 427 nM |
| CN1CCN(c2ccc(C(=O)Nc3n[nH]c4ccc(Cc5cc(F)cc(F)c5)cc34)cc2)CC1 | 1810 nM |
| CN1CCN(c2ccc(C(=O)Nc3n[nH]c4ccc(Cc5cc(F)cc(F)c5)cc34)c(NCc3ccccc3)c2)CC1 | 3690 nM |
| CN1CCN(c2ccc(C(=O)Nc3n[nH]c4ccc(Cc5cc(F)cc(F)c5)cc34)c(Nc3ccccc3)c2)CC1 | 9870 nM |
| CN1CCN(c2ccc(C(=O)Nc3n[nH]c4ccc(Cc5cc(F)cc(F)c5)cc34)c(NCCO)c2)CC1 | 906 nM |
| CN1CCN(c2ccc(C(=O)Nc3n[nH]c4ccc(Cc5cc(F)ccc5F)cc34)c(NC3CCOCC3)c2)CC1 | 170 nM |
